pIC50: −log10 of the molar value.
Columns and labels:
murine CCR2 = biological target: T1, murine CCR2 (Mus musculus, UniProt P51683); assay: Functional β-arrestin recruiting test with murine MCP-1 (B-2b); format: cell-based; conditions: U2OS β-arrestin cell line transfected with murine CCR2; agonist murine MCP-1; in some cases means of several determinations
T1 construct: host or cells: U2OS β-arrestin cell line
Protocol: The antagonistic action of test substances on CCR2 was determined in a β-arrestin test. The PathHunter β-arrestin GPCR test system (DiscoveRx Corporation, Ltd.) is a cell-based functional method for detecting binding of β-arrestin to an activated receptor. The molecular basis is a […] complementation measured by the enzymatic conversion of a chemiluminescent substrate. The test cell used was a U2OS β-arrestin cell line transfected with murine CCR2 (93-0543C3, DiscoveRx Corporation, Ltd.).
(§1) The test substances were dissolved in dimethyl sulphoxide (DMSO) at a concentration of 10 mM and serially diluted with DMSO in steps of 1:3.16 for a 10-point dose/activity analysis. According to the desired test concentrations, the substances were pre-diluted in Tyrode with 2 mM CaCl2 and 0.05% BSA.
The cells, cultivated in MEM Eagle (supplemented with 10% FCS, 50 U/ml of penicillin, 50 μg/ml of streptomycin, 250 μg/ml of hygromycin and 500 μg/ml of geniticin), were sown at 2000 cells/25 μl in 384 well, μCLEAR/black cell culture plates from Greiner (#781092) and incubated at 37° C. for 24 h. The sowing medium consisted of Opti-MEM (supplemented with 1% FCS, 50 U/ml of penicillin and 50 μg/ml of streptomycin). The cells were pre-incubated for 10 min with 10 μl of the test substances diluted in buffer, and 10 μl of agonist solution [human MCP-1 (PeproTech, #300-04) in Tyrode with 0.05% BSA) were then added. The human MCP-1 was employed at the concentration which corresponds to the EC50 which had been determined in a preliminary test (usually about 3 nM). After 90 min of incubation at 37° C., the solution was removed, and recruitment of β-arrestin to CCR2 was detected with the aid of the PathHunter detection reagent (93-001, DiscoveRx Corporation, Ltd.) according to the instructions of the manufacturer. Luminescence was measured after an incubation time of 60 min using a proprietary luminescence imaging measuring instrument. The molar concentration of the test substance which caused 50% inhibition of the MCP-1 effect (IC50) was determined using a 4-parameter logistic function (Hill function).
The test was carried out in a manner identical to that described above under B-2a, but using murine MCP-1 (PeproTech, #250-10) as agonist.

human CCR2 = biological target: T2, human CCR2 (Homo sapiens, UniProt P41597); assay: Functional Ca2+ release test (B-1); format: cell-based; conditions: Chem-1 cell line transfected with human CCR2; 50% inhibition of the MCP-1 effect, MCP-1 at EC50 (about 5 nM); in some cases means of several determinations
T2 construct: host or cells: Chem-1 cell line
T2 sequence (P41597 1-360 isoform P41597-2): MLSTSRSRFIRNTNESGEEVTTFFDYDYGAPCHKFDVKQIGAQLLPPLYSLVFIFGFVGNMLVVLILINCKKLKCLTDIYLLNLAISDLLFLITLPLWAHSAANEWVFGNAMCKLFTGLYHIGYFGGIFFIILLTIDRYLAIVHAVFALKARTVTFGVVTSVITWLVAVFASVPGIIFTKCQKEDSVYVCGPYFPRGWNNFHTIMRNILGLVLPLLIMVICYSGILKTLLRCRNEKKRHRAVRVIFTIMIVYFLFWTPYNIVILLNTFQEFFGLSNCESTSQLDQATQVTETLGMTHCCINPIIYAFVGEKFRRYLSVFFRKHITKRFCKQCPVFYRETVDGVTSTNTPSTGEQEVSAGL
Protocol: The antagonistic action of test substances on CCR2 was determined in a functional Ca^2+ release test. Binding of CCL2/MCP-1 to CCR2 leads to a change in the conformation of the receptor resulting in Gi/Gq protein activation and intracellular signal cascade. This involves, inter alia, an intracellular Ca^2+ release. The test cell used was a Chem-1 cell line transfected with human CCR2 (ChemiSCREEN™ CCR2B Calcium-Optimized FLIPR Cell Line, Merck Millipore).
as §1
The cells, cultivated in DMEM high glucose [supplemented with 10% FCS, 1 mM pyruvate, 15 mM HEPES, 500 μg/ml geniticin and non-essential amino acids (NEAA)], were sown at 5000 cells/25 μl in 384 well, μCLEAR/black cell culture plates from Greiner (#781092) and incubated at 37° C. for 24 h. The sowing medium consisted of DMEM high glucose [supplemented with 5% FCS, 1 mM pyruvate, 15 mM HEPES, 50 U/ml penicillin, 50 μg/ml streptomycin and non-essential amino acids (NEAA)]. The medium was then removed and the cells were charged for 60 min at 37° C. with Fluo-4 dye [25 μl Tyrode with 3 μM Fluo-4 AM (1 mM DMSO stock solution), 0.4 mg/ml Brilliant Black, 2.5 mM probenicid, 0.03% Pluronic F-127]. The cells were pre-incubated for 10 min with 10 μl of the test substances diluted in buffer, and 20 μl of agonist solution (MCP-1 in Tyrode with 0.05% BSA) were then added. MCP-1 was employed at the concentration which corresponds to the EC50 which had been determined in a preliminary test (usually about 5 nM). Ca^2+ release was monitored over a period of 120 s in 1 s increments in a proprietary fluorescence imaging reader. The molar concentration of the test substance which caused 50% inhibition of the MCP-1 effect (IC50) was determined using a 4-parameter logistic function (Hill function).

T1 sequence (P51683 whole entry): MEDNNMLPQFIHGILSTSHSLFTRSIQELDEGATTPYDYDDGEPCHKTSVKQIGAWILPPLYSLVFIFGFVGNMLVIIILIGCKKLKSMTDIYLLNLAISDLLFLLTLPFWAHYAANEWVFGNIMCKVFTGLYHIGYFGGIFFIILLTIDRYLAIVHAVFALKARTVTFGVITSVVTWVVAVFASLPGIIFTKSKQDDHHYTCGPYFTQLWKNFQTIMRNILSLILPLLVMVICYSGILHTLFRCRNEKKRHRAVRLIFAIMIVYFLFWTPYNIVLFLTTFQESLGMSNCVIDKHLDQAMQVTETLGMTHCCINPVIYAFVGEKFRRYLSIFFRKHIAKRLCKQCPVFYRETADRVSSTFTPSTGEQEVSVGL

Row | Compound | pIC50 (murine CCR2) | pIC50 (human CCR2)
1 | O=c1[nH]c(-c2cccnc2)nc(C(F)(F)F)c1Oc1ccc(Cl)c(C(F)(F)F)c1 [Example 164, 5-[4-chloro-3-(trifluoromethyl)phenoxy]-2-(pyridin-3-yl)-6-(trifluoromethyl)pyrimidin-4(3H)-one] | 6.10 | 7.80
2 | COc1cc(C)nc(-c2nc(C(F)(F)F)c(Oc3ccc(Cl)c(Cl)c3)c(=O)[nH]2)n1 [Example 183, 5-(3,4-dichlorophenoxy)-4′-methoxy-6′-methyl-6-(trifluoromethyl)-2,2′-bipyrimidin-4(3H)-one] | 6.84 | 8.54
3 | CC(C)(C)Oc1ccnc(-c2nc(C(F)(F)F)c(Oc3ccc(Cl)c(C(F)(F)F)c3)c(=O)[nH]2)c1 [Example 160, 2-(4-tert-butoxypyridin-2-yl)-5-[4-chloro-3-(trifluoromethyl)phenoxy]-6-(trifluoromethyl)pyrimidin-4(3H)-one] | 5.71 | 7.21
4 | CC(C)(C)c1nncn1-c1nc(C(F)(F)F)c(Oc2ccc(Cl)c(Cl)c2)c(=O)[nH]1 [Example 251] | 5.17 | 7.12
5 | COCc1cc(-c2nc(C(F)(F)F)c(Oc3ccc(Cl)c(Cl)c3)c(=O)[nH]2)no1 [Example 222] | 6.26 | 8.19
6 | O=c1[nH]c(-c2cnccn2)nc(C(F)(F)F)c1Oc1ccc(Cl)c(C(F)(F)F)c1 [Example 132, 5-[4-chloro-3-(trifluoromethyl)phenoxy]-2-(pyrazin-2-yl)-6-(trifluoromethyl)pyrimidin-4(3H)-one] | 6.59 | 8.42
7 | O=c1[nH]c(-c2ncccc2OC(F)(F)F)nc(C(F)(F)F)c1Oc1ccc(Cl)c(Cl)c1 [Example 203] | 6.37 | 7.82
8 | COc1nccnc1-c1nc(C(F)(F)F)c(Oc2ccc(Cl)c(Cl)c2)c(=O)[nH]1 [Example 117, 5-(3,4-dichlorophenoxy)-2-(3-methoxypyrazin-2-yl)-6-(trifluoromethyl)pyrimidin-4(3H)-one] | 7.44 | 9.52
9 | COc1cccnc1-c1nc(C(F)(F)F)c(Oc2ccc(Cl)c(C)c2)c(=O)[nH]1 [Example 194, 5-(4-chloro-3-methylphenoxy)-2-(3-methoxypyridin-2-yl)-6-(trifluoromethyl)pyrimidin-4(3H)-one] | 7.23 | 9.52
10 | COc1ccc2c(-c3nc(C(F)(F)F)c(Oc4ccc(Cl)c(Cl)c4)c(=O)[nH]3)noc2c1 [Example 208] | 5.02 | 7.11
11 | Cc1cc(-c2nc(C(F)(F)F)c(Oc3ccc(Cl)c(C(F)(F)F)c3)c(=O)[nH]2)no1 [Example 232] | 6.77 | 9.52
12 | CC(=O)Nc1ccc(-c2nc(C(F)(F)F)c(Oc3ccc(Cl)c(Cl)c3)c(=O)[nH]2)nc1 [Example 202] | 6.67 | 9.05
13 | CNc1ccnc(-c2nc(C(F)(F)F)c(Oc3ccc(Cl)c(Cl)c3)c(=O)[nH]2)c1 [Example 168, 5-(3,4-dichlorophenoxy)-2-[4-(methylamino)pyridin-2-yl]-6-(trifluoromethyl)pyrimidin-4(3H)-one] | 5.92 | 7.60
14 | O=c1[nH]c(-c2ncccc2Br)nc(C(F)(F)F)c1Oc1ccc(Cl)c(Cl)c1 [Example 181, 2-(3-bromopyridin-2-yl)-5-(3,4-dichlorophenoxy)-6-(trifluoromethyl)pyrimidin-4(3H)-one] | 8.10 | 9.15
15 | CNc1ccnc(-c2nc(C(F)(F)F)c(Oc3ccc(Cl)c(C(F)(F)F)c3)c(=O)[nH]2)c1 [Example 169, 5-[4-chloro-3-(trifluoromethyl)phenoxy]-2-[4-(methylamino)pyridin-2-yl]-6-(trifluoromethyl)pyrimidin-4(3H)-one] | 6.20 | 7.44
16 | COc1cccnc1-c1nc(C(F)(F)F)c(Oc2ccc(C)c(Cl)c2)c(=O)[nH]1 [Example 196, 5-(3-chloro-4-methylphenoxy)-2-(3-methoxypyridin-2-yl)-6-(trifluoromethyl)pyrimidin-4(3H)-one] | 6.23 | 8.77
17 | O=c1[nH]c(-c2cccc[n+]2[O-])nc(C(F)(F)F)c1Oc1ccc(Cl)c(Cl)c1 [Example 161, 5-(3,4-dichlorophenoxy)-2-(1-oxidopyridin-2-yl)-6-(trifluoromethyl)pyrimidin-4(3H)-one] | 6.36 | 8.64
18 | O=c1[nH]c(-c2cccnn2)nc(C(F)(F)F)c1Oc1ccc(Cl)c(C(F)(F)F)c1 [Example 118, 5-[4-chloro-3-(trifluoromethyl)phenoxy]-2-(pyridazin-3-yl)-6-(trifluoromethyl)pyrimidin-4(3H)-one] | 7.14 | 9.40
19 | Cn1ccc(-c2nc(C(F)(F)F)c(Oc3ccc(Cl)c(C(F)(F)F)c3)c(=O)[nH]2)n1 [Example 226] | 7.06 | 9.30
20 | CCCc1cc(-c2nc(C(F)(F)F)c(Oc3ccc(Cl)c(Cl)c3)c(=O)[nH]2)no1 [Example 215] | 5.94 | 8.10
21 | O=c1[nH]c(-c2ccncc2Cl)nc(C(F)(F)F)c1Oc1ccc(Cl)c(Cl)c1 [Example 124, 2-(3-chloropyridin-4-yl)-5-(3,4-dichlorophenoxy)-6-(trifluoromethyl)pyrimidin-4(3H)-one] | 6.49 | 8.54
22 | Cn1nc(-c2nc(C(F)(F)F)c(Oc3ccc(Cl)c(Cl)c3)c(=O)[nH]2)c2ccccc21 [Example 136, 5-(3,4-dichlorophenoxy)-2-(1-methyl-1H-indazol-3-yl)-6-(trifluoromethyl)pyrimidin-4(3H)-one] | 5.91 | 7.41
23 | COc1conc1-c1nc(C(F)(F)F)c(Oc2ccc(Cl)c(C(F)(F)F)c2)c(=O)[nH]1 [Example 180, 5-[4-chloro-3-(trifluoromethyl)phenoxy]-2-(4-methoxy-1,2-oxazol-3-yl)-6-(trifluoromethyl)pyrimidin-4(3H)-one] | 6.98 | 9.00
24 | C[S+]([O-])c1cccnc1-c1nc(C(F)(F)F)c(Oc2ccc(Cl)c(C(F)(F)F)c2)c(=O)[nH]1 (stereo not shown) [Example 265] | 6.59 | 7.92
25 | COc1ccc2c(-c3nc(C(F)(F)F)c(Oc4ccc(Cl)c(C(F)(F)F)c4)c(=O)[nH]3)noc2c1 [Example 207] | 5.35 | 7.09
26 | COc1cccc(-c2nc(C(F)(F)F)c(Oc3ccc(Cl)c(Cl)c3)c(=O)[nH]2)n1 [Example 144, 5-(3,4-dichlorophenoxy)-2-(6-methoxypyridin-2-yl)-6-(trifluoromethyl)pyrimidin-4(3H)-one] | 6.12 | 7.77
